Measurements from US11028052B2, “Compounds useful as modulators of TRPM8” (Firmenich Incorporated, priority 2013, dated 2021).

Legend:
panelists [1] = experiment: Sensory studies, cool line scale vs WS-3 (section 2.2); format: in vivo, human; details: for Sensory Results: compound concentration compared in cooling with a known concentration of WS-3
Excerpt: The results are presented relative to a known concentration of WS-3. A more specific detailed example of the sensory evaluation of selected examples are also presented below. […]

hTRPM8 [2] = target: T1, hTRPM8 (Homo sapiens, UniProt Q7Z2W7); experiment: hTRPM8 cell line agonist assay (section 2.1); format: cell-based; details: for EC50: cell line stably expressing hTRPM8; for EC50 Ratio (WS3): relative to WS3 screened on the same day, greater than one = more potent than WS3
T1 construct: expressed in transfected cells
T1 sequence (Q7Z2W7 whole entry): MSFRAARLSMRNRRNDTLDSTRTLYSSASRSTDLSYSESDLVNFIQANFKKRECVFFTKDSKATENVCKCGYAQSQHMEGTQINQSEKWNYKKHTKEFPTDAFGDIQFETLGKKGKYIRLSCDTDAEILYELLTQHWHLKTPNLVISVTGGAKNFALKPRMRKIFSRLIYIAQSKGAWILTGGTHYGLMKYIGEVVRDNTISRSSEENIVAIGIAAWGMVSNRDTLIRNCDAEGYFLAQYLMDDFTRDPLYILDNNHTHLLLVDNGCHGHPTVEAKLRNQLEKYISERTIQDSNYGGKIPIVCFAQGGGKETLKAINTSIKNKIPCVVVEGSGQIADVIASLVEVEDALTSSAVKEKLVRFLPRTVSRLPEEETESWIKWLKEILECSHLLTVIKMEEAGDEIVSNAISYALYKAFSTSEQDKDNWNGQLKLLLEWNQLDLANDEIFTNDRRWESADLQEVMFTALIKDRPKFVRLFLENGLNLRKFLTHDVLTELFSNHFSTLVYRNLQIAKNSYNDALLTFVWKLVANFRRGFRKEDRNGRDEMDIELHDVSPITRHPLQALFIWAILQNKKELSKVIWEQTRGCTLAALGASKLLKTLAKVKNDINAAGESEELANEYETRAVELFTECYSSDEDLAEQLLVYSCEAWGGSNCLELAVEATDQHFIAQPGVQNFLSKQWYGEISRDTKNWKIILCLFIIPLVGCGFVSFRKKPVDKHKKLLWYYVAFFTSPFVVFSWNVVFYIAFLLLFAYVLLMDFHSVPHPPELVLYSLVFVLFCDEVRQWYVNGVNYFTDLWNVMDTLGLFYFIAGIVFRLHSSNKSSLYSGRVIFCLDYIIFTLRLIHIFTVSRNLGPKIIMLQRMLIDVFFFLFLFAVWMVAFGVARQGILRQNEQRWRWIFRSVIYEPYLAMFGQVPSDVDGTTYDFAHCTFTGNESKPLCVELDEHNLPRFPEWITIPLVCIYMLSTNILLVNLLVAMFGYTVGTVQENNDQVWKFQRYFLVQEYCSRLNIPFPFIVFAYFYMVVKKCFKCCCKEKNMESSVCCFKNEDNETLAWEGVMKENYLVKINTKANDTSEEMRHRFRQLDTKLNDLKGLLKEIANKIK
Protocol: A cell line which stably expresses hTRPM8 was used in biological assays in association with testing the present compounds with cool-tasting or -feeling properties. Typical compound concentrations tested were 100 μM, 50 μM, 10 μM, 1 μM, and 0.5 μM. The present compounds have shown activity as agonists of hTRPM8. Assay results for compounds are illustrated in the table below. EC50 in micromoles (μM) is presented as well as the activity relative to WS3 (an established, commercially available cooling agent). […] A value of 1 indicates the compound is equipotent to WS3 in the assay. […] It is noted that Compounds 2.A1 to 2.S6 in the table below are the Examples described in this application. For example, Compound 2.B 1 is Example 2.2.

hTRPM8 [3] = target: T1, hTRPM8; experiment: hTRPM8 cell based agonist assay (section 3.1); details: for EC50: mammalian cell line stably expressing TRPM8; for EC50 Ratio (WS3): relative to WS3
Excerpt: The present compounds are useful as modulators of TRPM8. The activity of TRPM8 can be readily monitored in cell based assays using fluorescent calcium-sensitive dyes, membrane potential dyes, or sodium-sensitive dyes. The activity of TRPM8 can also be monitored with electrophysiological set-ups, such as patch-clamping and two-electrode voltage clamping. A mammalian cell line derivative which stably expresses TRPM8 was used in biological assays in association with testing the present compounds with cool-tasting or -feeling properties (Servant et al. US 2007/0259354 A1 and references cited therein). Typical compound concentrations tested were 50 μM, 20 μM, 10 μM, 5 μM, 2 μM, 1 μM, 0.5 μM, 0.1 μM, 0.05 μM, 0.01 μM, and other concentration points in between. The present compounds have shown strong activity as agonists of hTRPM8. Assay results for compounds are illustrated in Table 1 below. Specifically, the Compounds listed in Table 3.1, i.e., Compounds 3.A1 to Compounds 3.D1 are the specific compounds as described above.

panelists [4] = experiment: Sensory study, cooling line scale vs WS-3 (section 1.2); format: in vivo, human; details: for Average Cooling: 45 μM WS-3 control, 15 point line scale
Protocol: Three typical sensory studies are described below each followed by a table summarizing sensory results of selected compounds of the invention (Tables 1.2 to 1.4).
(§1) All samples made with Low Sodium Buffer (LSB) pH ˜7.1 and contain 0.1% ethanol.
(§2) Compounds are rated on a 15 point line scale where 45 μM WS-3 (N-Ethyl-p-menthane-3-carboxamide) is ranked as a 5 in cool intensity. In most cases our compounds are tested to determine at what concentration the cooling intensity is equivalent to 45 μM WS-3. In each test, the panelist is presented with a 0 μM control sample, a 45 μM WS-3 control sample and the experimental compound sample and asked to rate the cooling intensity of each sample. Panelists are also asked to rate bitterness. In the table below there was no significant bitterness detected unless otherwise noted. Also, in the table below, n represents the number of tests completed for a given experiment (#panelists×#repetitions).

panelists [5] = experiment: Sensory study, cool line scale test vs WS-3 (section 3.2); format: in vivo, human; details: for Average Cooling: Table 3.2, n = 30
Protocol: Two typical sensory studies are described below each followed by a table summarizing sensory results of selected compounds of the invention (Tables 3.2 and 3.3).
as §1
as §2, with “The test is a cool line scale test with timed 30 seconds interval. Compounds” for “Compounds”, “intensity. The present compound was” for “intensity. In most cases our compounds are”, “panelist was” for “panelist is”, “Panelists were” for “Panelists are”

CN1CC(C)(C2=CCCCC2)C(=O)N(CC(=O)c2ccccc2)C1=O (centres unmarked) [Compound 2.A1]
Sensory Results (panelists [1]): 10 uM < 45 uM WS-3 | EC50 (hTRPM8 [2]): 135 nM | EC50 Ratio (WS3) (hTRPM8 [2]): 54.6

CN1C(=O)N(CC(=O)c2cccc(O)c2)C(=O)C1(C)C1CC2CCC1C2 (single isomer, unassigned) [Compound 2.B3]
EC50 Ratio (WS3) (hTRPM8 [2]): 2810.1

CCN1C(=O)N(CC(=O)c2ccccc2)C(=O)C1(C)C1CCCCC1 (centres unmarked) [Compound 2.P3]
Sensory Results (panelists [1]): 15 uM < 45 uM WS-3 | EC50 (hTRPM8 [2]): 230 nM | EC50 Ratio (WS3) (hTRPM8 [2]): 38.1

C[C@H](C(=O)N(C)CC(=O)c1ccsc1)C1CCCCC1 [Example 3.A4]
EC50 (hTRPM8 [3]): 41 nM | EC50 Ratio (WS3) (hTRPM8 [3]): 132.4

CCNC(=O)C1CC(C)CCC1C(C)C (centres unmarked) [WS-3, N-Ethyl-p-menthane-3-carboxamide, reference compound]
Average Cooling (panelists [4]; Table 1.2, n = 30): 4.4 | Average Cooling (panelists [4]; Table 1.3, n = 28): 5.4 | Average Cooling (panelists [4]; Table 1.4, n = 28): 4.1 | Average Cooling (panelists [5]; 45 μM WS-3 control): 4.5 | Cool intensity compared with LSB (line scale conclusion) (panelists [1]; 60 μM in LSB at pH 7.1): significantly higher in cool intensity than LSB | Ave Cool (panelists [1]; Table 2.1, 60 μM WS-3, n = 10): 3.7

CC1=NN(CC(=O)c2ccccc2)C(=O)C1(C)C1CCCCC1 (centres unmarked) [Example A1]
Cooling compared with 0 μM and 45 μM WS-3 (panel conclusion) (panelists [4]; 5 μM): significantly more cooling than 0 μM WS-3 (p<0.05) and not significantly different in cooling than 45 μM WS-3

CC(C)(C(=O)NCC(=O)c1cccnc1)C1CCCCC1 [Example 3.B4]
EC50 (hTRPM8 [3]): 230 nM | EC50 Ratio (WS3) (hTRPM8 [3]): 26.5

CN1C(=O)N(CC(=O)c2cccnc2)C(=O)C1(C)CCc1ccccc1 (centres unmarked) [Compound 2.U5]
EC50 (hTRPM8 [2]): 3720 nM | EC50 Ratio (WS3) (hTRPM8 [2]): 0.9

CN1C(=O)N(CC(=O)c2ccc(O)cc2)C(=O)C1(C)C1CCCCC1 (centres unmarked) [Compound 2.D3]
EC50 (hTRPM8 [2]): 124 nM | EC50 Ratio (WS3) (hTRPM8 [2]): 33.4

C[C@H](C(=O)N(C)CC(=O)c1ccccc1)C1CCCCC1 [Example 3.2, (S)-2-Cyclohexyl-N-methyl-N-(2-oxo-2-phenylethyl)propanamide]
Cooling compared with 0 μM and 45 μM WS-3 (panel conclusion) (panelists [5]; 5 μM): significantly more cooling than 0 μM WS-3 (p<0.05) and not significantly different in cooling than 45 μM WS-3 | Average Cooling (panelists [5]; 5 μM, 15 point line scale): 4.0

CC(C(=O)N(C)CC(=O)c1cccs1)C1CCCCC1 (centres unmarked) [Example 3.A10]
EC50 (hTRPM8 [3]): 59 nM | EC50 Ratio (WS3) (hTRPM8 [3]): 62.5

C[C@H](C(=O)NNC(=O)c1ccccc1)C1CCCCC1 [Example 3.G1]
EC50 (hTRPM8 [3]): 6240 nM | EC50 Ratio (WS3) (hTRPM8 [3]): 1.0

CN1C(=O)N(CC(=O)c2cccc(O)c2)C(=O)C1(C)C1CC2CCC1C2 (centres unmarked) [Compound 2.C3]
EC50 (hTRPM8 [2]): 100 nM | EC50 Ratio (WS3) (hTRPM8 [2]): 49.1

CN1CC(C)(C2=CCCCC2)CN(CC(=O)c2ccccc2)C1=O (centres unmarked) [Compound 2.F1]
EC50 (hTRPM8 [2]): 2880 nM | EC50 Ratio (WS3) (hTRPM8 [2]): 1.6

CC1CCCC1C1(C)C(=O)N(CC(=O)c2ccc[nH]2)C(=O)N1C (centres unmarked) [Compound 2.N3]
Sensory Results (panelists [1]): 15 uM < 45 uM WS-3 | EC50 (hTRPM8 [2]): 205 nM | EC50 Ratio (WS3) (hTRPM8 [2]): 24.1

CN1C(=O)N(CC(=O)c2ccccc2)C(=O)C1(C)C1CC2CCC1CC2 (centres unmarked) [Compound 2.I3]
EC50 (hTRPM8 [2]): 163 nM | EC50 Ratio (WS3) (hTRPM8 [2]): 33.8

CC(C)(C(=O)NCC(=O)c1cc(O)cc(O)c1)C1CCCCC1 [Example 3.A9]
EC50 (hTRPM8 [3]): 87 nM | EC50 Ratio (WS3) (hTRPM8 [3]): 66.5

CC(C)(C(=O)NCC(O)c1ccccc1)C1CCCCC1 (centres unmarked) [Example 3.F8]
EC50 (hTRPM8 [3]): 4170 nM | EC50 Ratio (WS3) (hTRPM8 [3]): 1.1

CN1C(=O)N(CC(=O)c2ccccc2)C(=O)C1(C)C1=CCCCC1 (centres unmarked) [Compound 2.F3]
EC50 (hTRPM8 [2]): 138 nM | EC50 Ratio (WS3) (hTRPM8 [2]): 44.0

Cc1cccc(C(C)C(=O)N(C)CC(=O)c2ccccc2)c1 (centres unmarked) [Example 3.E6]
EC50 (hTRPM8 [3]): 4470 nM | EC50 Ratio (WS3) (hTRPM8 [3]): 2.5

CN1C(=O)N(CC(=O)c2cccnc2)C(=O)C1(C)C1CCCCC1 (centres unmarked) [Compound 2.K3]
Sensory Results (panelists [1]): 30 uM~45 uM WS-3 | EC50 (hTRPM8 [2]): 172 nM | EC50 Ratio (WS3) (hTRPM8 [2]): 30.1

CN1C(=O)N(CC(=O)c2ccccc2)C(=O)C1(C)C1CC2C=CC1CC2 (centres unmarked) [Compound 2.E3]
EC50 (hTRPM8 [2]): 127 nM | EC50 Ratio (WS3) (hTRPM8 [2]): 53.5

CN1C(=O)N(CC(=O)c2ccccc2)C(=O)C(C)(C2=CCCCC2)C1=O (centres unmarked) [Compound 2.M3]
EC50 (hTRPM8 [2]): 192 nM | EC50 Ratio (WS3) (hTRPM8 [2]): 240.6

CC(C)(C(=O)NCC(=O)c1ccc(O)cc1)C1CCCCC1 [Example 3.C5]
EC50 (hTRPM8 [3]): 504 nM | EC50 Ratio (WS3) (hTRPM8 [3]): 9.4

CN1C(=O)N(CC(=O)c2ccccc2)C(=O)C1(C)C1CC2CCC1CC2 (single isomer, unassigned) [Compound 2.A3]
EC50 (hTRPM8 [2]): 100 nM | EC50 Ratio (WS3) (hTRPM8 [2]): 73.1

CC(C(=O)N(C)CC(=O)c1cccc(O)c1)C1CCCCC1 (centres unmarked) [Example 3.A1]
EC50 (hTRPM8 [3]): 13 nM | EC50 Ratio (WS3) (hTRPM8 [3]): 581.6

CN1C(=O)N(CC(=O)c2cccnc2)C(=O)C(C)(C2=CCCCC2)C1=O (centres unmarked)
melting point: 109 to 111 °C

CC1CCCC1C1(C)C(=O)N(CC(=O)c2cccc(O)c2)C(=O)N1C (mixture of isomers) [Compound 2.G3]
Sensory Results (panelists [1]): 15 uM < 45 uM WS-3 | EC50 (hTRPM8 [2]): 146 nM | EC50 Ratio (WS3) (hTRPM8 [2]): 32.6

CC(C(=O)N(C)CC(=O)c1cc(O)cc(O)c1)C1CCCCC1 (centres unmarked) [Example 3.A3]
EC50 (hTRPM8 [3]): 28 nM | EC50 Ratio (WS3) (hTRPM8 [3]): 221.2

CN1C(=O)N(CC(=O)c2ccc[nH]2)C(=O)C1(C)C1CC2CCC1C2 (single isomer, unassigned) [Compound 2.O3]
EC50 (hTRPM8 [2]): 223 nM | EC50 Ratio (WS3) (hTRPM8 [2]): 21.6

CN1C(=O)N(CC(=O)c2ccc[nH]2)C(=O)C1(C)C1CCCCC1 (centres unmarked) [Compound 2.J3]
Sensory Results (panelists [1]): 15 uM~45 uM WS-3 | EC50 (hTRPM8 [2]): 166 nM | EC50 Ratio (WS3) (hTRPM8 [2]): 32.1

CN1CC(C)(C2CCCCC2)C(=O)N(CC(=O)c2cccnc2)C1=O (centres unmarked) [Example 2.2, 5-cyclohexyl-1,5-dimethyl-3-(2-oxo-2-(pyridin-3-yl)ethyl)dihydropyrimidine-2,4(1H,3H)-dione]
EC50 (hTRPM8 [2]): 374 nM | EC50 Ratio (WS3) (hTRPM8 [2]): 13.5

CC(C(=O)N(C)CC(=O)c1ccccc1)C1CCCCC1 (centres unmarked) [Example 3.A2]
EC50 (hTRPM8 [3]): 10 nM | EC50 Ratio (WS3) (hTRPM8 [3]): 577.8

CC(C(=O)NCC(=O)c1ccccc1)C1CC2CCC1C2 (centres unmarked) [Example 3.F9]
EC50 (hTRPM8 [3]): 3390 nM | EC50 Ratio (WS3) (hTRPM8 [3]): 1.0

CC1CCCC1C1(C)C(=O)N(CC(=O)c2ccccc2)C(=O)N1C (mixture of isomers) [Compound 2.L3]
EC50 (hTRPM8 [2]): 182 nM | EC50 Ratio (WS3) (hTRPM8 [2]): 25.9

CN(CC(=O)c1ccc(F)cc1)C(=O)C(C)(C)C1CCCCC1 [Example 3.E7]
EC50 (hTRPM8 [3]): 2160 nM | EC50 Ratio (WS3) (hTRPM8 [3]): 1.9

CC(C(=O)N(C)CC(=O)c1ccccc1)c1ccccc1 (centres unmarked) [Example 3.D6]
EC50 (hTRPM8 [3]): 2350 nM | EC50 Ratio (WS3) (hTRPM8 [3]): 3.9

CC(C)(C(=O)NCC(=O)c1cccc(F)c1)C1CCCCC1 [Example 3.B7]
EC50 (hTRPM8 [3]): 257 nM | EC50 Ratio (WS3) (hTRPM8 [3]): 18.6
